Laboratory results as given in US20240024216A1, “METHODS AND MATERIALS FOR TREATING HAIR LOSS” (The Penn State Research Foundation, priority 2021, published 2024).

Experiments:
[1] = tested on: wound healing mouse skin sections; assay: Immunostaining and western blot of day 14 wound tissue markers; format: in vivo, mice
Method: Briefly, immunohistochemical and immunofluorescence analysis were performed on 5 μm thick wound healing mouse skin sections. The sections were deparaffinized and subjected to an antigen retrieval process by using sodium citrate buffer at 95° C. followed by immersed in 0.5% triton X-100. The section slides were blocked using 5% goat serum in 0.1% PBS-T for 1 hour. The following primary antibodies mouse monoclonal [LL002] anti-Cytokeratin14 (catalog No.—ab7800; IF-1:100), rat CD31 antibody (Catalog No.—553370; IF-1:100), mouse S100 antibody (Catalog No.—MA5-12969; IF-1:200), rabbit nerve growth factor receptor—p75-NTR antibody (Catalog No.—AB1554; IF and WB-1:500), Chicken neurofilament Heavy-NFH antibody (Catalog No.—NB300-217; IF-1:500), mouse alpha-smooth muscle actin —α-SMA antibody (Catalog No.—14-9760-82; IF-1:200 and WB-1:500), mouse TGF beta antibody (Catalog No.—27969; IF-1:100 and WB-1:500), rabbit Ki67 antibody (Catalog No.—9129S; IF-1:400), chicken keratin 15 antibody (Catalog No. —833901; IF-1:500), rabbit K17 antibody (gift from Pierre a. coulombe Lab; IF-1:1000), rabbit interleukin-1 beta antibody (Catalog No.—GTX74034; IF-1:100), rat F4/80 antibody (Catalog No.—MCA497GA; IF-1:100), mouse anti-SOX10 antibody (Catalog No.—sc-365692; IF-1:100 and WB-1:200), chicken anti-myelin basic protein antibody (Catalog No.—MBP; IF-1:1000), rabbit vimentin antibody (Catalog No.—10366-1-AP; IF-1:200), rabbit NGF antibody (Catalog No.—MA5-32067; IF-1:100 and WB-1:1000), mouse PGP 9.5 antibody (Catalog No.—PA5-29012; IF-1:200), chicken anti-P-zero myelin protein antibody (Catalog No.—PZO; IF-1:200), and rat substance P antibody (Catalog No. —NB100-65219; IF-1:100) were overnight incubated with 5% BSA in 0.1% PBS-T for IF stain and/or 5% skimmed milk in 0.1% TBS-T for Western blot at 4° C., then incubated with secondary antibodies for 1 hour at room temperature. The ProLong™ Gold Anti-fade Mountant with DAPI (Invitrogen, Caltlog No. P36935) used as nuclear counterstain. The immunofluorescence stained sections were imaged using ZEISS Axio Observer 7—Axiocam 506 mono—Apotome.2 microscope. The image analysis and quantification were formed either using ZEN 2.6 pro (Zeiss) imaging software or ImageJ-1.53e software (National Institutes of Health, USA).
For protein isolation the harvested skin tissue was flash frozen immediately. The frozen skin tissue ground to a fine power using a liquid nitrogen mortar. The harvested cells and/or tissue powder dissolved in RIPA buffer containing Halt™ Phosphatase (Thermo Scientific, Catlog No. 78420,) and Protease Inhibitor Cocktail (Roche complete tablets mini EASYpack, Catlog No. 04694124001). Tissue and cell debris removed by centrifuged at 14000 rpm for 30 minutes at 4° C. The supernatant was collected and the total protein concentration was determined by BCA protein assay (Thermo Scientific™ Pierce™, Catlog No. 23225). The proteins (20-30 μg) of the tissue protein samples were subjected to 12% sodium dodecyl sulfate polyacrylamide gel electrophoresis (Bio-Rad mini-PROTEAN TGX Gels, Catlog No. 4561044) and transferred to polyvinylidene fluoride (PVDF) membranes. After the membranes were blocked with 5% skimmed milk in 1×TBS-T for 1 hour, they were incubated with the appropriate primary antibodies (1:200-1:1000) at 4° C. overnight, then incubated with HRP-conjugated secondary antibodies (1:3000) for 1 hour. Immunoreactivity was then detected using chemiluminescent substrate (Thermo Scientific™ SuperSignal™ West Pico PLUS, Catlog No. 34577). The intensities of the bands were quantified using Gel-imaging software. The quantified band intensity were normalized using GAPDH and expressed either normalized intensity or ratios with respect to saline treated mice.

[2] = tested on: keratinocytes, Schwann cells and fibroblast; assay: Cell viability MTT assay; format: cell-based, human; details: concentrations of 4-AP used in vitro; 24 hours
Method: The keratinocytes, Schwann cells and fibroblast were culture on 96-well plates, the wells were pre-coated with respective coating matrix in complete growth medium and incubated cells for 12-18 hours at 37° C. in 5% CO2 incubator. Cells were washed with PBS and added basal Schwann cells/fibroblast/keratinocytes medium to starve, then incubated for 4 hours at 37° C. with 5% CO2. After the incubation period, various concentrations of 4-AP (concentrations ranging from 1 to 10000 μM) in 100 μL containing respective medium's (complete keratinocytes, Schwann cells and fibroblast medium), cells were incubated either 24 hours at +37° C. and 5% CO2 incubator. After completion of incubation time, 10 μL of the MTT labeling reagent (final concentration 0.5 mg/ml) was added to each well and incubate at +37° C. for 4 hours in a humidified atmosphere. Then, 100 μL of the solubilization solution into each well and allow the plate to stand in the incubator overnight or until the formazan crystals had dissolved. […] The formazan absorbance was read using wavelength of 550 nm in a plate reader. The color of optical density (OD) is directly propositional to number of live cells. The percentage of live keratinocytes/Schwann cells/fibroblast cells was determined using the following formula. […]

[3] = tested on: keratinocytes co-cultured with fibroblasts (10:1); assay: Co-culture scratch assay, keratinocytes with fibroblasts; format: cell-based, human; details: measured at 15 hours; 72% in non-treated
Method: To determine the influence of Schwann cells and fibroblast on keratinocytes migration and proliferation wound healing scratch assay was conducted. The co-culture experiment performed in Keratinocytes to either Schwann cells or fibroblasts in a ratio of 10:1 with same proposition of their respective medium were seeded on 96-well ImageLock microplate for 6 hours and the wells were pre-coated with collagen-I plate. For the drug treatment cells were pretreated with 4-AP prior to coating for 16-18 hours. Next, the wound scratch was created and treated cells with and without 4-AP in medium. Imaged for every hour until 24 hour and analyzed for percent of closure as described above procedure.

[4] = day 14, vs saline treated controls

SMILES: Nc1ccncc1 [4-AP, 4-aminopyridine]
- keratinocyte K10 expression in healed epidermis ([1]; day 14): did not cause any change
- levels of PGP 9.5 compared with uninjured tissue ([1]; day 14): not significantly different
- K17 expressing cells ([1]; day 14, vs control group): more abundant
- inflammatory cells (IL-1β) and macrophages (F4/80) in granulation tissue ([1]; day 14, vs control wounds): less of inflammatory cells and macrophages
- fold increase in Ki-67+ [1, 4]: 2 fold
- fold increase in NF-H axonal counts [1, 4]: 2.5 fold
- fold increase in S100+ cells [1, 4]: 3 fold
- increase in K15+ cells [1, 4]: two fold increase
- SOX10 expression ([1]; day 14, vs saline treated mice): Significantly increased
- fold increase in NGF expression ([1]; day 14, vs saline treated mice): 4 fold
- substance-P expression ([1]; day 14, vs saline treated mice): Significantly increased
- fold increase in K14+ keratinocytes ([1]; day 14, vs saline-treated mice): 2.5 fold
- double positive (S100+, p75-NTR+) SCs ([1]; day 14, vs saline, confirmed by WB for p75-NTR): increased numbers
- K14+ keratinocytes ([1]; day 14 wound bed): 13.72±1.403%
- Ki-67+ in hair follicle bulges and epidermis ([1]; day 14 wound tissue): 21.87±2.763 cells/mm^2
- NF-H axonal counts ([1]; day 14 wound tissue): 194±50.51 count/mm^2
- NGF expression ([1]; day 14 wound tissue): 2429872±375280 integrated density/mm^2
- S100+ cells around nerve bundles ([1]; day 14 wound tissue): 6.483±1.163 % positive cells
- CD31 intensity (blood vessels) ([1]; day 14 wound tissue, vs saline): statistically significant increases
- TGF-β protein expression ([1]; day 14 wound tissue, vs saline): significant increases
- vimentin-positive fibroblasts ([1]; day 14 wound tissue, vs saline): more vimentin-positive fibroblasts
- α-SMA-positive myofibroblasts ([1]; day 14 wound tissue, vs saline): more
- PGP 9.5+ nerve fibres ([1]; fourteen days post wound): 4096938±713297 integrated density/mm^2
- PGP 9.5+ nerve fibres relative to saline treated mice ([1]; fourteen days post wound): twice as abundant
- cell viability [2]: not affected
- scratch closure [3]: 93%
